# From ChEMBL document CHEMBL1122038, “Peptide sweeteners. 5. Side-chain homologues relating zwitterionic and trifluoroacetylated amino acid anilide and dipeptide sweeteners” (J Med Chem, 1982)
# Where a name gives a salt, the structure may show the parent alone. Peptide text beside a SMILES is read from it. * marks the point of attachment. Tfa = O=C(C(F)(F)F)*
# Assay: Compound was evaluated for the potency of sweet taste when sweetness of sucrose is taken as 1 on a weight basis; 150-200
row,Taste,SMILES
1,150,COC(=O)[C@H](Cc1ccccc1)NC(=O)[C@@H](N)CC(=O)O
2,150,COC(=O)[C@H](Cc1ccccc1)NC(=O)C(N)C(=O)O (some centres undefined)
3,150,COC(=O)C(Cc1ccccc1)NC(=O)C(CC(=O)O)NC(=O)C(F)(F)F (stereo not drawn) (Tfa-Asp-Phe-OMe; configuration not given here)

# Assay: Compound was evaluated for the potency of sweet taste when sweetness of sucrose is taken as 1 on a weight basis; Not sweet
# Assay type: functional
row,SMILES,Taste
1,COC(=O)C(Cc1ccccc1)NC(=O)C(NC(=O)C(F)(F)F)C(=O)O (centres undefined),0
2,N#Cc1ccc(NC(=O)C(N)C(=O)O)cc1 (centres undefined),0
3,N#Cc1ccc(NC(=O)C(NC(=O)C(F)(F)F)C(=O)O)cc1 (centres undefined),0
4,N#Cc1ccc(NC(=O)C(CCCC(=O)O)NC(=O)C(F)(F)F)cc1 (centres undefined),0
5,N#Cc1ccc(NC(=O)CCC(NC(=O)C(F)(F)F)C(=O)O)cc1 (stereo in doubt; 9),0
6,N#Cc1ccc(NC(=O)C[C@@H](NC(=O)C(F)(F)F)C(=O)O)cc1,0
7,N#Cc1ccc(NC(=O)CC(NC(=O)C(F)(F)F)C(=O)O)cc1 (centres undefined),0
8,N#Cc1ccc(NC(=O)CCC(NC(=O)C(F)(F)F)C(=O)O)cc1 (stereo in doubt; 11),0
9,COC(=O)C(Cc1ccccc1)NC(=O)C(CCC(=O)O)NC(=O)C(F)(F)F (centres undefined),0
10,N#Cc1ccc(NC(=O)C(CC(=O)O)NC(=O)C(F)(F)F)cc1 (centres undefined),0
11,N#Cc1ccc(NC(=O)C(CCC(=O)O)NC(=O)C(F)(F)F)cc1 (centres undefined),0
12,COC(=O)[C@H](Cc1ccccc1)NC(=O)[C@@H](N)CCC(=O)O,0

# Assay: Compound was evaluated for the potency of sweet taste when sweetness of sucrose is taken as 1 on a weight basis; 15-30
row,Taste,SMILES
1,15,N#Cc1ccc(NC(=O)C(N)CCC(=O)O)cc1 (centres undefined)
2,15,N#Cc1ccc(NC(=O)C(N)CC(=O)O)cc1 (centres undefined)

# Assay: Compound was evaluated for the potency of sweet taste when sweetness of sucrose is taken as 1 on a weight basis; 2500-3000
row,Taste,SMILES
1,2500,N#Cc1ccc(NC(=O)C(CCC(=O)O)NC(=O)C(F)(F)F)cc1 (centres undefined)
2,2500,N#Cc1ccc(NC(=O)[C@H](CC(=O)O)NC(=O)C(F)(F)F)cc1
